Reference: patent US11352308B2, “Compound and semiconductor material containing same” (DIC Corporation, priority 2016, dated 2022)

Experiment: Solubility in p-xylene at room temperature (25° C.), visual complete dissolution
Format: physicochemical
Experimental: Solubility was evaluated by completely dissolving compound (101) visually by adding p-xylene at room temperature (25° C.).

| Structure (SMILES) | Solubility of compound |
| --- | --- |
| CCCCCCCCCCc1ccc2cc3cc(-c4ccc(C)cc4)ccc3cc2c1 [Compound (107)] | 0.4 wt % |
| CCCCCCCCc1ccc2cc3cc(-c4ccccc4)ccc3cc2c1 [Compound (103)] | 0.7 wt % |
| CCCCCCCc1ccc2cc3cc(-c4ccccc4)ccc3cc2c1 [Compound (102)] | 1.1 wt % |
| c1ccc(-c2ccc3cc4cc(-c5ccccc5)ccc4cc3c2)cc1 [Compound (C101), reference compound] | <0.1 (which cannot accurately be wt % |
| CCCCCCCCCc1ccc2cc3cc(-c4ccccc4)ccc3cc2c1 [Compound (104)] | 0.7 wt % |
| CCCCCCCCCCc1ccc2cc3cc(-c4ccccc4)ccc3cc2c1 [Compound (105)] | 0.4 wt % |
| CCCCCCc1ccc2cc3cc(-c4ccccc4)ccc3cc2c1 [Compound (101)] | 1.3 wt % |
| CCCCCCc1ccc2cc3cc(-c4ccc(C)cc4)ccc3cc2c1 [Compound (106)] | 0.8 wt % |
